Data as given in article PMC11239955, “Phase 1 pharmacokinetic and safety study of soticlestat in participants with mild or moderate hepatic impairment or normal hepatic function” (Pharmacology Research & Perspectives, 2024).
Where two headings read alike, the source gives them in different places.

Columns and labels:
[1] = target: cholesterol 24‐hydroxylase (CH24H); conditions: no method or reference given; read-out: CH24H inhibition IC50; cited from earlier work
[2] = cited from earlier work
clinical [3] = conditions: human, in vivo
Method: This was a phase 1, open‐label study of a single dose of oral soticlestat 300 mg with three treatment arms (NCT05098054)[25]: moderate hepatic impairment (Child‐Pugh B; score ≥7 and ≤9; anticipated enrollment n = 8); mild hepatic impairment (Child‐Pugh A; score ≥5 and ≤6; n = 8); and normal hepatic function (n = 12–24). Screening occurred at an outpatient visit up to 28 days before dosing. Participants were admitted to the clinic the day before dosing and remained until day 7. Follow‐up phone contact occurred 14 ± 2 days after dosing.
The moderate hepatic impairment arm was conducted first, followed by the matched normal hepatic function arm. After enrollment of the mild hepatic impairment arm, up to 12 additional participants could be enrolled for the matched normal hepatic function group to ensure a minimum of 12 participants with normal hepatic function and matching the mean of the mild hepatic impairment arm by age, sex, and BMI. Soticlestat was taken as three 100 mg immediate‐release tablets on day 1 with approximately 240 mL water under fasting conditions (≥10 h before dosing and 4 h post‐dose).
(§1) Medical history and demographic data were recorded at screening. Twelve‐lead ECG, pulse rate, and BP were taken 2, 24, and 144 h after dosing or at early termination, and respiratory rate and temperature were taken 24 and 144 h after dosing or at early termination. Hematology, coagulation, serum chemistry, and urine analysis were conducted 48 and 144 h after dosing or at early termination. Blood samples for pharmacokinetic assessments of soticlestat and its metabolites M‐I and M3 were taken predose and 0.133, 0.25, 0.5, 0.75, 1, 1.5, 2, 4, 6, 8, 10, 14, 24, 36, 48, 72, 96, 120, and 144 h after dose administration or at early termination. Blood samples for plasma protein binding were taken predose and 0.5 and 10 h after dose administration. TEAE monitoring occurred throughout the study and at follow‐up.
The study's primary endpoints were the following pharmacokinetic parameters for soticlestat: C max; area under the total plasma concentration‐time curve from time 0 to infinity (AUC∞); and AUC from time 0 to time of the last quantifiable total plasma concentration (AUClast). The incidences of TEAEs and clinically significant abnormal values for laboratory evaluations, vital signs, ECG parameters, and Columbia‐Suicide Severity Rating Scale were secondary objectives. Exploratory endpoints were plasma pharmacokinetic parameters of soticlestat metabolites M‐I and M3 (C max, AUC∞, AUClast, metabolite‐to‐parent ratio [MPR] C max, MPR AUClast, and MPR AUC∞); additional plasma pharmacokinetic parameters of soticlestat and the metabolites M‐I and M3 (time of first occurrence of C max [t max] and terminal disposition phase half‐life [t ½z]); additional plasma pharmacokinetic parameters of soticlestat (apparent clearance after extravascular administration, calculated using the observed value of the last quantifiable total plasma concentration [CL/F]; apparent volume of distribution during the terminal disposition phase after extravascular administration, calculated using the observed value of the last quantifiable total plasma concentration [Vz/F]); and plasma protein binding of soticlestat: fraction of unbound soticlestat.
Total soticlestat, M‐I, and M3 concentrations and unbound soticlestat concentrations were determined using liquid chromatography–tandem mass spectrometry by CMIC, Inc. (Hoffman Estates, IL, USA). Unbound plasma soticlestat concentrations were measured using ultrafiltration (by CMIC, Inc.). Pharmacokinetic parameters were calculated using Phoenix® WinNonlin® version 8.3.4.
Descriptive statistics were derived for the concentration data: number of observations (n), arithmetic mean (mean), standard deviation (SD), arithmetic percent coefficient of variation (CV%), standard error of the mean, minimum, median, and maximum. […]

clinical [4] = type: in vitro ADME; conditions: human, plasma, Plasma protein binding, mean
Method: Medical history and demographic data were recorded at screening. Twelve‐lead ECG, pulse rate, and BP were taken 2, 24, and 144 h after dosing or at early termination, and respiratory rate and temperature were taken 24 and 144 h after dosing or at early termination. Hematology, coagulation, serum chemistry, and urine analysis were conducted 48 and 144 h after dosing or at early termination. […] Blood samples for plasma protein binding were taken predose and 0.5 and 10 h after dose administration. TEAE monitoring occurred throughout the study and at follow‐up. The study's primary endpoints were the following pharmacokinetic parameters for soticlestat: C max; area under the total plasma concentration‐time curve from time 0 to infinity (AUC∞); and AUC from time 0 to time of the last quantifiable total plasma concentration (AUClast). The incidences of TEAEs and clinically significant abnormal values for laboratory evaluations, vital signs, ECG parameters, and Columbia‐Suicide Severity Rating Scale were secondary objectives. […] Total soticlestat, M‐I, and M3 concentrations and unbound soticlestat concentrations were determined using liquid chromatography–tandem mass spectrometry by CMIC, Inc. (Hoffman Estates, IL, USA). Unbound plasma soticlestat concentrations were measured using ultrafiltration (by CMIC, Inc.). Pharmacokinetic parameters were calculated using Phoenix® WinNonlin® version 8.3.4.

[5] = Safety: treatment-emergent adverse events after single oral soticlestat 300 mg; type: in vivo, human
Method: as §1
The study's primary endpoints were the following pharmacokinetic parameters for soticlestat: C max; area under the total plasma concentration‐time curve from time 0 to infinity (AUC∞); and AUC from time 0 to time of the last quantifiable total plasma concentration (AUClast). The incidences of TEAEs and clinically significant abnormal values for laboratory evaluations, vital signs, ECG parameters, and Columbia‐Suicide Severity Rating Scale were secondary objectives. […]

[6] = design: method as in PMID 33837574; conditions: healthy volunteers, doses 15 to 1350 mg; cited from earlier work
plasma protein = tested on: plasma protein; design: method as in PMID 37771051; conditions: human, cited from earlier work
[7] = 300 mg dose of [14C]soticlestat

O=C(c1cccnc1-c1ccncc1)N1CCC(O)(Cc2ccccc2)CC1 [soticlestat]
IC50 [1]: 4.5 nM | Administered dose recovered in urine as this substance [2, 7]: 0.1% | Recovery of total radioactivity in feces [2, 7]: 2.7% | Recovery of total radioactivity in urine [2, 7]: 94.8% | Excreted in urine [2]: < 1% | Share of soticlestat metabolism accounted for by UGT1A9 and UGT2B4 [2]: approximately 90% | Absolute bioavailability ([2]; healthy volunteers): 12.6% | Increase in total plasma exposure vs healthy matched participants (preliminary analysis) (clinical [3]): approximately 3 fold | Total plasma AUClast higher vs healthy participants (preliminary analysis) (clinical [3]): approximately 3 fold | Total plasma AUC∞ higher vs healthy participants (preliminary analysis) (clinical [3]): approximately 3 fold | Vd/F (clinical [3]; po, 300 mg, Mean ± SD Vz/F, total plasma): 890 ± 1900 L | half-life (clinical [3]; po, 300 mg, Mean ± SD t½z, total plasma): 219 ± 58.5 min | Tmax (clinical [3]; po, 300 mg, Median (range) tmax, total plasma): 30 min | fraction unbound (clinical [4]): 0.175 | TEAEs based on serum chemistry, hematology, coagulation, urinalysis, vital signs, ECG, or Columbia-Suicide Severity Rating Scale ([5]; all study arms): no TEAEs | Number of TEAEs considered study drug related ([5]; in vivo): two | Mean plasma maximum concentration (Cmax) [6]: 43.5 to 7950 ng/mL | Terminal elimination half-life [6]: 49.2 to 430 min | In vitro plasma protein binding (plasma protein; 0.1 μg/mL): 94.0% | In vitro plasma protein binding (plasma protein; 1 μg/mL): 93.4% | In vitro plasma protein binding (plasma protein; 10 μg/mL): 70.6% | Main binding protein in plasma (plasma protein): mainly bound to human α‐1‐acid glycoprotein
